# Data as given in patent US20240307550A1, “MODULATION OF CD46 CELL SURFACE MARKER IN BOTH ANDROGEN RECEPTOR-POSITIVE AND NEGATIVE CANCER CELLS” (The Regents of the University of California, priority 2021, published 2024).
# T1: CD46 on the surface of prostate cancer cells (human, UniProt P15529 35-392)
# T1 sequence (looked up): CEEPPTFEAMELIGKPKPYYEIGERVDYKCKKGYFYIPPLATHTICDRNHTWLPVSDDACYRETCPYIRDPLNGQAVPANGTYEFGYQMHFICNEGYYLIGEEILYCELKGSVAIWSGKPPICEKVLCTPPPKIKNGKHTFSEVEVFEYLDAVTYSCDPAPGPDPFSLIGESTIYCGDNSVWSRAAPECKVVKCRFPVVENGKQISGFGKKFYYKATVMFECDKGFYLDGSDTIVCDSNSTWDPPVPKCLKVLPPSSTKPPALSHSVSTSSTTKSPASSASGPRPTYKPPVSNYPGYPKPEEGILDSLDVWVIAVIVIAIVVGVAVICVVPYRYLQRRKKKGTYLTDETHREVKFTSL
# B1: CD46 ADC (YS5-MC-vc-PAB-MMAF) (antibody, human IgG1, lambda, V domains shown)
# VH: QVQLVQSGGGVVQPGRSLRLACAASGLTVNNYAMHWVRQAPGKGLEWVAVISYDGNNKYYADSVKGRFTISRDNSKNTLYLQMNSLRAEDTAVYYCAKGGGYFDLWGRGTLVTVSS
# VL: QSVLTQPPSVSGAPGQRVTISCTGSSSNIGAGYDVHWYQQLPGTAPKLLIYGNNNRPSGVPDRFSGSKSGTSASLAITGLQAEDEADYYCSSYTSGTWLFGGGTKLTVLG
# modifications: MC-vc-PAB-MMAF drug-linker conjugated; sites and drug to antibody ratio not stated for this conjugate
# B2: YS5 anti-CD46 antibody (antibody, human IgG1, lambda, V domains shown)
# VH: B1 VH
# VL: B1 VL
# notes: also called YS5FL; anti-CD46 antibody YS5
# Tests used:
# [1] = test system: CD46 cell surface expression, 22Rv1 cells; assay: CD46 cell surface expression by flow cytometry using YS5, 22Rv1 cells; assay type: cell-based
# Procedure: (§1) AR positive 22Rv1 cells were exposed to enzalutamide (5 μM) and CD46 cell surface expression was measured by flow cytometry using YS5. As a reference, prostate specific membrane antigen (PSMA) was also measured at the same time. […] MFI: median fluorescence intensity. See right portion of FIG. 1.
# (§2) Methods: 22Rv1 and Du145 cells were exposed to varying concentrations of the Stat3 inhibitor C188-9 and the glucocorticoid receptor inhibitor mifepristone for 7-10 days at 37° C. in culture media, and cell surface CD46 expression is detected by flow cytometry using the anti-CD46 antibody YS5 followed by AlexaFluo-617 labeled anti-human Fc secondary antibody. MFI (median fluorescence intensity) was recorded and analyzed by Student t-test (for two group comparison) and One-way ANOVA (for group number >2).
# [2] = test system: CD46 cell surface expression, Du145 cells; assay: CD46 cell surface expression by flow cytometry, Du145 cells; assay type: cell-based; settings: 7 days; for CD46 cell surface expression (MFI): Du145 cells, 37° C.
# Procedure: as §2
# [3] = test system: CD46 cell surface expression, VCaP cells; assay: CD46 cell surface expression by flow cytometry using YS5, VCaP cells; assay type: cell-based; settings: AR positive VCaP cells, enzalutamide 5 μM, versus control cells
# Procedure: AR positive VCaP cells were exposed to enzalutamide (5 μM) and CD46 cell surface expression was measured by flow cytometry using the YS5 antibody. MFI: median fluorescence intensity.
# [4] = test system: prostate specific membrane antigen (PSMA), 22Rv1 cells; assay: PSMA measured as reference by flow cytometry, 22Rv1 cells; assay type: cell-based; settings: AR positive 22Rv1 cells, enzalutamide 5 μM
# Procedure: as §1
# [5] = test system: CD46 antigen density, LNCaP-C4-2B cells; assay: CD46 antigen density by quantitative flow cytometry, LNCaP-C4-2B cells; assay type: cell-based; settings: 10 μM, 7 days
# Source text: CD46 antigen density was *p<0.05; **p<0.01 (p=0.0091), Student's test, duplicates.
# LNCaP-C4-2B xenografts = assay type: in vivo; settings: mice with subcu LNCaP-C4-2B xenografts; 50 mg/kg daily for 4 weeks from day 10; single iv 3 mg/kg CD46 ADC on Day-14; 69 days
# Procedure: An in vivo tumor implantation mouse model was studied to measure the effect of pre-treatment with enzalutamide followed by andi-CD46 ADC treatment. LNCaP-C4-2B cells were implanted in mice subcu on Day-0. Starting on day 10, the mice were administered with 50 mg/kg, daily, for 4 weeks. […] FIG. 7 depicts the survival rate of the mice.
# [6] = test system: CD46 cell surface antigen density, H660 cells; assay: CD46 cell surface antigen density by quantitative flow cytometry, H660 cells; assay type: cell-based; settings: AR-negative neuroendocrine H660 cells, 10 μM abiraterone
# Procedure: The neuroendocrine prostate cancer cell line H660, which is AR-negative, was exposed to an ASI (in this case, 10 μM abiraterone), and CD46 cell surface antigen density was measured by quantitative flow cytometry. Over 2-fold increase of CD46 antigen density was found following ASI treatment.
# [7] = biological target: T1, CD46 on the surface of prostate cancer …; assay: cell-based or functional assay
# [8] = biological target: T1, CD46 on the surface of prostate cancer …; assay: flow cytometry on VCaP and 22Rv1 cells (figure legend)
# Procedure: AR positive VCaP cells were exposed to enzalutamide (5 μM) and CD46 cell surface expression was measured by flow cytometry using the YS5 antibody. MFI: median fluorescence intensity. […] AR positive 22Rv1 cells were exposed to enzalutamide (5 μM) and CD46 cell surface expression was measured by flow cytometry using YS5. As a reference, prostate specific membrane antigen (PSMA) was also measured at the same time. Enzalutamide-induced upregulation was unique to CD46 but not PSMA. MFI: median fluorescence intensity. See right portion of FIG. 1.
# AR positive 22Rv1 cells were exposed to enzalutamide (5 μM) and CD46 cell surface expression was measured by flow cytometry using YS5. As a reference, prostate specific membrane antigen (PSMA) was also measured at the same time. Enzalutamide-induced upregulation was unique to CD46 but not PSMA. MFI: median fluorescence intensity. See right portion of FIG. 1.
molecule,measurement,setting,value
"COc1ccc(S(=O)(=O)Nc2cc(-c3c(O)ccc4ccccc34)c(O)c3ccccc23)cc1 [C188-9, N-(1′, 2-Dihydroxy-1,2′-binaphthalen-4′-yl)-4-methoxybenzenesulfonamide]",CD46 cell surface expression (MFI),"[1]; 22Rv1 cells, C188-9 low/mid concentrations (2.5 and 5 μM), 37° C., 10 days",stimulates CD46 cell surface presentation
same,CD46 cell surface presentation (MFI),"[1]; prostate cancer cells (22Rv1, 10 μM, 10 days, single experiment, FIG. 12; Du145, FIG. 13), C188-9 high concentrations (>10 μM)",inhibits
same,CD46 cell surface expression (MFI),"[2]; C188-9 10, 20 and 50 μM",inhibits CD46 cell surface presentation
CNC(=O)c1ccc(N2C(=S)N(c3ccc(C#N)c(C(F)(F)F)c3)C(=O)C2(C)C)cc1F [enzalutamide],CD46 cell surface expression (MFI),[3],significantly more CD46 expression than control cells
same,CD46 cell surface expression (MFI),"[1]; AR positive 22Rv1 cells, enzalutamide 5 μM",upregulation was unique to CD46
same,PSMA expression (MFI),[4],not PSMA
same,CD46 antigen density,[5],increased
same,CD46 cell surface expression,"[2]; AR-null Du145 cells, enzalutamide 5 μM, p<0.0001, n=4",increase significantly
same,tumor response / overall survival (Kaplan-Meier),LNCaP-C4-2B xenografts,resistant to enz treatment alone
C[C@]12CC[C@H](O)CC1=CC[C@@H]1[C@@H]2CC[C@]2(C)C(c3cccnc3)=CC[C@@H]12 [abiraterone],increase of CD46 antigen density,[6],Over 2 fold
CC#C[C@]1(O)CC[C@H]2[C@@H]3CCC4=CC(=O)CCC4=C3[C@@H](c3ccc(N(C)C)cc3)C[C@@]21C [mifepristone],CD46 cell surface expression (MFI),"[1]; 22Rv1 cells, mifepristone 2.5 μM, 37° C., 10 days, Student t test",not significant
same,CD46 cell surface expression (MFI),[2]; mifepristone high concentrations (20 and 50 PM),inhibits CD46 cell surface presentation
B1,"EC50 of cell killing, LNCaP-C4-2B cells pre-exposed to abiraterone against cells not pre-exposed",[7],17 fold
B2,binding result,[8],binds
